Molecular target: T1, Bex1 (recombinant Bex1 protein) (Mus musculus, UniProt Q9R224)
T1 construct: N-terminal hexahistidine tag (pETDuet-1), expressed in E. coli Rosetta-gami 2(DE3)pLysS, non-denaturing Ni-NTA purification, 15N-labelled; tag removal not mentioned
T1 sequence (Q9R224 1-128): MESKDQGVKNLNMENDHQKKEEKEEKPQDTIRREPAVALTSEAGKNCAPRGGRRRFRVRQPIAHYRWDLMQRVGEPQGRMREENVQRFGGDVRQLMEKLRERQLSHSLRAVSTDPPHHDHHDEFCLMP
Experiment: 2D 1H-15N HSQC NMR titration (chemical shift perturbation)
Format: binding
Source text: 2D 1H-15N HSQC NMR titration (chemical shift perturbation) on Bex1 (recombinant Bex1 protein) | The peak shift of Bex1 was GTP concentration-dependent with the dissociation constant (Kd) equal to […]

Kd: 244 ± 98 µM
SMILES: Nc1nc2c(ncn2[C@@H]2O[C@H](COP(=O)(O)OP(=O)(O)OP(=O)(O)O)[C@@H](O)[C@H]2O)c(=O)[nH]1 [GTP]

— publication PMC8830175, “Bex1 is essential for ciliogenesis and harbours biomolecular condensate-forming capacity” (BMC Biology, 2022)
